Common to all, as to format: functional
Test [1] relates to Mycoplasma fermentans. As to the kind of experiment: Antimicrobial activity against Mycoplasma fermentans isolated from human by two fold serial dilution method. The following applies: Mycoplasmopsis fermentans.
Test [2] has as its system Mycoplasmoides pneumoniae. As to the kind of experiment: Antimicrobial activity against Mycoplasma pneumoniae isolated from human by two fold serial dilution method.
In test [3] the test system is Ureaplasma urealyticum. The experiment in a line: Antimicrobial activity against Ureaplasma urealyticum isolated from human by two fold serial dilution method.
For test [4], the system named is Mycoplasma genitalium. As to the kind of experiment: Antimicrobial activity against Mycoplasma genitalium isolated from human by two fold serial dilution method. As to conditions: Mycoplasmoides genitalium.
For test [5], the system named is Ureaplasma parvum. As to the kind of experiment: Antimicrobial activity against Ureaplasma parvum isolated from human by two fold serial dilution method.
Test [6] deals with Metamycoplasma hominis. The experiment in a line: Antimicrobial activity against Mycoplasma hominis isolated from human by two fold serial dilution method.

Values after ≈ are worked out from the molar mass of the structure shown.

The MIC50 is an inhibitory concentration at the 50% level, which refers to growth in some studies and to a panel of isolates in others. A lower MIC50 goes with greater potency. The term MIC90 denotes an inhibitory concentration at the 90% level, which refers to growth in some studies and to a panel of isolates in others. Higher therefore signals weaker potency. What is called MIC is the least concentration at which growth counts as inhibited. Lower therefore signals inhibition by little substance. As for `CC[C@H]1OC(=O)[C@H](C)[C@@H](O[C@H]2C[C@@](C)(OC)[C@@H](O)[C@H](C)O2)[C@H](C)[C@@H](O[C@@H]2O[C@H](C)C[C@H](N(C)C)[C@H]2O)[C@](C)(O)C[C@@H](C)CN(C)[C@H](C)[C@@H](O)[C@]1(C)O` [AZITHROMYCIN], the MIC50 in test [1] was 500 ng/mL (≈ 668 nM); in test [2], 0.25 ng/mL (≈ 0.334 nM); in test [3], 2000 ng/mL (≈ 2670 nM); in test [5] it was 2000 ng/mL (≈ 2670 nM). Further, the MIC90 stood at 500 ng/mL (≈ 668 nM) in test [1], 0.5 ng/mL (≈ 0.668 nM) in test [2], 4000 ng/mL (≈ 5340 nM) in test [3] and 4000 ng/mL (≈ 5340 nM) in test [5]. Besides, in test [4], the MIC is ≤ 0.032 ng/mL.

Take `CCC[C@@H]1C[C@@H](C(=O)N[C@@H]([C@H]2O[C@H](SC)[C@H](O)[C@@H](O)[C@H]2O)[C@H](C)Cl)N(C)C1` [CLINDAMYCIN]: in test [1], the MIC50 turned out to be 16 ng/mL (≈ 37.6 nM) and the MIC90 was determined as 31 ng/mL (≈ 72.9 nM). For the same compound, in test [6], the MIC was ≤ 8 ng/mL, the MIC50 was ≤ 8 ng/mL and the MIC90 worked out at 16 ng/mL (≈ 37.6 nM).

Take `C[C@H]1c2cccc(O)c2C(=O)C2=C(O)[C@]3(O)C(=O)C(C(N)=O)=C(O)[C@@H](N(C)C)[C@@H]3[C@@H](O)[C@@H]21.O` [DOXYCYCLINE]: the MIC50 in test [1] worked out at 125 ng/mL; in test [6] it was 125 ng/mL; in test [2], 125 ng/mL; in test [3], 1000 ng/mL; in test [5], 8000 ng/mL. For the same compound, the MIC90 in test [1] was determined as 500 ng/mL; in test [6] it was 8000 ng/mL; in test [2] it was 250 ng/mL; in test [3], 16000 ng/mL; in test [5], 16000 ng/mL. For the same compound, in test [4], the MIC was ≤ 8 ng/mL.

Take `C[C@H]1COc2c(N3CCN(C)CC3)c(F)cc3c(=O)c(C(=O)O)cn1c23.C[C@H]1COc2c(N3CCN(C)CC3)c(F)cc3c(=O)c(C(=O)O)cn1c23.O` [LEVOFLOXACIN]: the MIC50 in test [1] turned out to be 31 ng/mL; in test [6], 250 ng/mL; in test [2] it was 500 ng/mL; in test [3] it was 500 ng/mL; in test [5], 500 ng/mL. The MIC90 stood at 125 ng/mL in test [1]; 500 ng/mL in test [6]; 500 ng/mL in test [2]; 1000 ng/mL in test [3]; 2000 ng/mL in test [5]. For the same compound, the MIC in test [3] was 500 ng/mL; in test [4], 125 ng/mL.

For the compound `CC(=O)NC[C@H]1CN(c2ccc(N3CCOCC3)c(F)c2)C(=O)O1` [LINEZOLID], the MIC50 was 1000 ng/mL (≈ 2960 nM) in test [1], 2000 ng/mL (≈ 5930 nM) in test [6], 64000 ng/mL (≈ 190000 nM) in test [2] and > 256000 ng/mL in test [5]. In addition, the MIC90 in test [1] was 4000 ng/mL (≈ 11900 nM); in test [6], 4000 ng/mL (≈ 11900 nM); in test [2], 128000 ng/mL (≈ 379000 nM); in test [3] it was > 256000 ng/mL; in test [5], > 256000 ng/mL. Also, the values for the minimal inhibitory concentration (MIC) in test [3] and in test [4] were ≥ 256000 ng/mL and 4000 ng/mL (≈ 11900 nM), respectively.

For the compound `CC[C@H]1OC(=O)[C@@](C)(F)C(=O)[C@H](C)[C@@H](O[C@@H]2O[C@H](C)C[C@H](N(C)C)[C@H]2O)[C@](C)(OC)C[C@@H](C)C(=O)[C@H](C)[C@H]2N(CCCCn3cc(-c4cccc(N)c4)nn3)C(=O)O[C@]12C` [SOLITHROMYCIN], the MIC was ≤ 8 ng/mL in test [1] and ≤ 0.032 ng/mL in test [4]. For the same compound, the MIC50 was ≤ 8 ng/mL in test [1]; 4 ng/mL (≈ 4.73 nM) in test [6]; 0.032 ng/mL (≈ 0.0379 nM) in test [2]; 8 ng/mL (≈ 9.47 nM) in test [3]; 8 ng/mL (≈ 9.47 nM) in test [5]. Besides, the MIC90 in test [1] was ≤ 8 ng/mL; in test [6], 8 ng/mL (≈ 9.47 nM); in test [2] it was 0.125 ng/mL (≈ 0.148 nM); in test [3], 31 ng/mL (≈ 36.7 nM); in test [5] it was 16 ng/mL (≈ 18.9 nM).

As to `CC[C@H]1OC(=O)[C@H](C)C(=O)[C@H](C)[C@@H](O[C@@H]2O[C@H](C)C[C@H](N(C)C)[C@H]2O)[C@](C)(OC)C[C@@H](C)C(=O)[C@H](C)[C@H]2N(CCCCn3cnc(-c4cccnc4)c3)C(=O)O[C@]12C` [TELITHROMYCIN], the MIC50 in test [1] was ≤ 8 ng/mL; in test [6], 250 ng/mL (≈ 308 nM); in test [2], 0.25 ng/mL (≈ 0.308 nM); in test [3] it was 63 ng/mL (≈ 77.6 nM); in test [5], 63 ng/mL (≈ 77.6 nM). In addition, the MIC90 in test [1] came out at 16 ng/mL (≈ 19.7 nM); in test [6], 500 ng/mL (≈ 616 nM); in test [2], 1 ng/mL (≈ 1.23 nM); in test [3] it was 250 ng/mL (≈ 308 nM); in test [5], 125 ng/mL (≈ 154 nM). Moreover, in test [4], the MIC was ≤ 0.03 ng/mL.

These data come from ChEMBL document CHEMBL1649196, “Comparative in vitro susceptibilities of human mycoplasmas and ureaplasmas to a new investigational ketolide, CEM-101” (2009).
